In patent US4524077A, “Liquid 2-hydroxy-4-methylthiobutyric acid and process for the preparation thereof” (priority 1983, dated 1985):

What was measured:
[1] = Gardner color of HMBA product; assay type: physicochemical
Description: This product has a total HMBA content, including monomer, dimers, and oligomers, of between about 80% and about 95% by weight, preferably 85% to 90% by weight, and a water content of between about 5% and about 20%, preferably between 10% and about 15% by weight. […] The ratio of the weight proportion of HMBA monomer to the weight proportion of the sum of dimers and other oligomers thereof is at least about 2.8, preferably at least about 5.7.

[2] = Extraction of diluted HCl hydrolyzate at 70° C. (Table VIII); assay type: physicochemical; settings: HMBA extract/raffinate, HCl hydrolyzate diluted 100:40 with water
Description: The phases were separated and analyzed for HMBA.
This work up and extraction was repeated for 1-butanol.

## CSCCC(O)C(=O)O (racemic) [HMBA, 2-hydroxy-4-methylthiobutyric acid]
[1]; 88% by weight solution in water, Example 1, first method (methyl propyl ketone and water extraction)
  Gardner color: 5
[1]; Example 6, Product
  Color (Gardner): 3
[1]; Example 13, bottom product, 88.9% HMBA
  Gardner color: 4

## CC(=O)CC(C)C [Methyl isobutyl ketone]
[2]
  Distribution Coefficient: 2.4
